Activity calls are given as the source filed them. The calls are words filed in the database; no cut-off is given here.

The target of data set [1] is Receptor tyrosine-protein kinase erbB-2 (Homo sapiens, UniProt P04626). The experiment in a line: Inhibition of recombinant human HER2 incubated for 40 to 45 mins and measured after 15 mins by Kinase-Glo Max assay.
Another data set deals with HeLa. The experiment in a line: Antiproliferative activity against human HeLa cells after 72 hrs by MTT assay. The format is functional, cell-based.
The test system of the next data set is PC-3. Kind of data set: Antiproliferative activity against human PC-3 cells after 72 hrs by MTT assay. The format is functional, cell-based. Conditions: PC-3, 72 h.
Another data set relates to WI-38. Kind of data set: Antiproliferative activity against human WI-38 cells after 72 hrs by MTT assay. The format is functional, cell-based. Conditions: WI-38, 72 h.
Data set [2] relates to MCF7. Kind of data set: cells. Conditions: Homo sapiens, MCF7, 72 h.
Another data set concerns HepG2. The experiment in a line: cells. Conditions: Homo sapiens, HepG2, 72 h.
A further data set addresses T1, Dihydrofolate reductase (Homo sapiens, UniProt P00374).
T1 sequence (P00374 whole entry): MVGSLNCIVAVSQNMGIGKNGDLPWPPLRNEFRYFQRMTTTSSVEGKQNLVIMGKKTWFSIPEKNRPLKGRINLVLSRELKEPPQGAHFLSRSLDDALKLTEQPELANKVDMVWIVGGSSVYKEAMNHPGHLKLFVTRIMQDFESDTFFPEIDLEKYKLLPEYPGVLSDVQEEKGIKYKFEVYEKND
Kind of data set: Inhibition of recombinant human DHFR expressed in Escherichia coli incubated for 15 mins and measured by ELISA.

For data set [3], the target named is Epidermal growth factor receptor (Homo sapiens, UniProt P00533).
Epidermal growth factor receptor, sequence (P00533 whole entry): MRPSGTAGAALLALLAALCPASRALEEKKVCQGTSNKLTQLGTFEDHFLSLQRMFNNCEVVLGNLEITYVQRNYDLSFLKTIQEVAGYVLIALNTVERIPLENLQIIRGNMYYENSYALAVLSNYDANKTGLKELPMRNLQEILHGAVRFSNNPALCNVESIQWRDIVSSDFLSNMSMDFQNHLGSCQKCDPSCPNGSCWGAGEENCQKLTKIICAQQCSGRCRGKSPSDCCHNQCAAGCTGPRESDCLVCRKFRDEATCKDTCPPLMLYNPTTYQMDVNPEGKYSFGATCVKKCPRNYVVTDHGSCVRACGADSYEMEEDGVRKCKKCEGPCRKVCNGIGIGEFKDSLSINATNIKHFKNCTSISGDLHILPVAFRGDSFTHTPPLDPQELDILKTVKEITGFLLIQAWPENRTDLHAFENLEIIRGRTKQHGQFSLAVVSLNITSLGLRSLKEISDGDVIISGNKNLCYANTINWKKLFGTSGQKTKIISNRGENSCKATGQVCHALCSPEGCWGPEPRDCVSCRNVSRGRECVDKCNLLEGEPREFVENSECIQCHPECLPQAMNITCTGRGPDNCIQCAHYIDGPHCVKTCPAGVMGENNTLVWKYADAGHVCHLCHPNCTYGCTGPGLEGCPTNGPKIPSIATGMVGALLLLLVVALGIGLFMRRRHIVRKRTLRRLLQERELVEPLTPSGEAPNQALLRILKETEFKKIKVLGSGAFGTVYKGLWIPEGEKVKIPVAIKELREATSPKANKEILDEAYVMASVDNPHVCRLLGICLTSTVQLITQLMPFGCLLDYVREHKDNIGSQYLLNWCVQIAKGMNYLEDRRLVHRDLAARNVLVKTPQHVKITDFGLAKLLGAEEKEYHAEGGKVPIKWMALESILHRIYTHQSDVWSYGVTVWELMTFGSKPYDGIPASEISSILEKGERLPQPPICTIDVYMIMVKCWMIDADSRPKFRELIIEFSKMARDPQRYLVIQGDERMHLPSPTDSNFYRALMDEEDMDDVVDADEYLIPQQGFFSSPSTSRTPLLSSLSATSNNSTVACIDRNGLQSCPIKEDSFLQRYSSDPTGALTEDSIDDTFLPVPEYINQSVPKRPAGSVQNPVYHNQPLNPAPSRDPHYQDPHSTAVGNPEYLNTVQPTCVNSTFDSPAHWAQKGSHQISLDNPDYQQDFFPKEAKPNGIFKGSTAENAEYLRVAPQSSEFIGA
Description: Inhibition of recombinant human EGFR incubated for 40 to 45 mins and measured after 15 mins by Kinase-Glo Max assay
The subject of another data set is HCT-116. The experiment in a line: cells. The conditions noted are these: Homo sapiens, HCT-116, 72 h.
In the next data set the test system is Breast carcinoma cell. Kind of data set: Induction of apoptosis in human breast cancer cells assessed as normalization of caspase-3 expression measured as caspase-3 score. In kind it is functional, Breast cancer cell line.
Data set [4] can be described thus: Antitumor activity in 7,12-dimethylbenz [a]anthracene-induced non-lactating mammary glands solid tumor model of female Swiss albino mouse assessed as mean tumor volume at 2 mg/kg, ip. The format is functional.
A short description of data set [5]: Toxicity in 7,12-dimethylbenz [a]anthracene-induced non-lactating mammary glands solid tumor model of female Swiss albino mouse assessed as reduction in body weight at 2 mg/kg, ip. More on the design: scale not given: the % may be the effect or the level left. The format is organism-based. The conditions noted are these: in vivo.
A short description of data set [6]: Antitumor activity in 7,12-dimethylbenz [a]anthracene-induced non-lactating mammary glands solid tumor model of female Swiss albino mouse assessed as reduction in tumor volume at 2 mg/kg, ip. The format is functional. More on the design: scale not given: the % may be the effect or the level left.
A short description of data set [7]: Toxicity in 7,12-dimethylbenz [a]anthracene-induced non-lactating mammary glands solid tumor model of female Swiss albino mouse assessed as mean body weight at 2 mg/kg, ip. The conditions noted are these: in vivo. The format is organism-based.
Data set [8] in a line: Toxicity in 7,12-dimethylbenz [a]anthracene-induced non-lactating mammary glands solid tumor model of female Swiss albino mouse assessed as reduction in body weight at 10 mg/kg, ip. Conditions: in vivo. The format is organism-based. More on the design: scale not given: the % may be the effect or the level left.
In data set [9] the test system is MCF7. Kind of data set: Induction of apoptosis in human MCF7 cells assessed as late apoptotic cells level measured by propidium iodide/RNAse staining based flow cytometry analysis (reference value: 0.22%). The format is functional.
Data set [10] has as its system MCF7. Kind of data set: Induction of necrosis in human MCF7 cells assessed as necrotic cells level measured by propidium iodide/RNAse staining based flow cytometry analysis (reference value: 0.9%). In kind it is functional.
Data set [11] can be described thus: Antitumor activity in 7,12-dimethylbenz [a]anthracene-induced non-lactating mammary glands solid tumor model of female Swiss albino mouse assessed as reduction in tumor volume at 10 mg/kg, ip. The format is functional. On the set-up: scale not given: the % may be the effect or the level left.
The test system of data set [12] is MCF7. The experiment in a line: Induction of cell cycle arrest in human MCF7 cells assessed as increase in DNA content at G0/G1 phase measured by propidium iodide/RNAse staining based flow cytometry analysis (reference value: 57.82%). In kind it is functional.
Data set [13] can be described thus: Toxicity in 7,12-dimethylbenz [a]anthracene-induced non-lactating mammary glands solid tumor model of female Swiss albino mouse assessed as mean body weight at 10 mg/kg, ip. The format is organism-based. The conditions noted are these: in vivo.
Data set [14] has as its system MCF7. The experiment in a line: Induction of cell cycle arrest in human MCF7 cells assessed as increase in DNA content at S phase measured by propidium iodide/RNAse staining based flow cytometry analysis (reference value: […]%). The format is functional.
The subject of data set [15] is MCF7. Kind of data set: Induction of apoptosis in human MCF7 cells assessed as early apoptotic cells level measured by propidium iodide/RNAse staining based flow cytometry analysis (reference value: […]). In kind it is functional.
Data set [16] is described as follows: Antitumor activity in 7,12-dimethylbenz [a]anthracene-induced non-lactating mammary glands solid tumor model of female Swiss albino mouse assessed as mean tumor volume at 10 mg/kg, ip. In kind it is functional.
Data set [17] concerns MCF7. Kind of data set: Induction of cell cycle arrest in human MCF7 cells assessed as decrease in DNA content at G2/M phase measured by propidium iodide/RNAse staining based flow cytometry analysis (reference value: 13.4%). In kind it is functional. More on the design: scale not given: the % may be the effect or the level left.
A further data set deals with Breast cancer cell line. Kind of data set: Antitumor activity in 7,12-dimethylbenz [a]anthracene-induced non-lactating mammary glands solid tumor model of female Swiss albino mouse assessed as absence of ductal carcinoma in mammary gland at 10 mg/kg, ip measured by H and E staining method. The format is functional, organism-based.
Data set [18] deals with MCF7. Kind of data set: Induction of apoptosis in human MCF7 cells assessed as total apoptotic cells level measured by propidium iodide/RNAse staining based flow cytometry analysis (reference value: 0.73%). The format is functional.

Receptor tyrosine-protein kinase erbB-2, sequence (P04626 whole entry): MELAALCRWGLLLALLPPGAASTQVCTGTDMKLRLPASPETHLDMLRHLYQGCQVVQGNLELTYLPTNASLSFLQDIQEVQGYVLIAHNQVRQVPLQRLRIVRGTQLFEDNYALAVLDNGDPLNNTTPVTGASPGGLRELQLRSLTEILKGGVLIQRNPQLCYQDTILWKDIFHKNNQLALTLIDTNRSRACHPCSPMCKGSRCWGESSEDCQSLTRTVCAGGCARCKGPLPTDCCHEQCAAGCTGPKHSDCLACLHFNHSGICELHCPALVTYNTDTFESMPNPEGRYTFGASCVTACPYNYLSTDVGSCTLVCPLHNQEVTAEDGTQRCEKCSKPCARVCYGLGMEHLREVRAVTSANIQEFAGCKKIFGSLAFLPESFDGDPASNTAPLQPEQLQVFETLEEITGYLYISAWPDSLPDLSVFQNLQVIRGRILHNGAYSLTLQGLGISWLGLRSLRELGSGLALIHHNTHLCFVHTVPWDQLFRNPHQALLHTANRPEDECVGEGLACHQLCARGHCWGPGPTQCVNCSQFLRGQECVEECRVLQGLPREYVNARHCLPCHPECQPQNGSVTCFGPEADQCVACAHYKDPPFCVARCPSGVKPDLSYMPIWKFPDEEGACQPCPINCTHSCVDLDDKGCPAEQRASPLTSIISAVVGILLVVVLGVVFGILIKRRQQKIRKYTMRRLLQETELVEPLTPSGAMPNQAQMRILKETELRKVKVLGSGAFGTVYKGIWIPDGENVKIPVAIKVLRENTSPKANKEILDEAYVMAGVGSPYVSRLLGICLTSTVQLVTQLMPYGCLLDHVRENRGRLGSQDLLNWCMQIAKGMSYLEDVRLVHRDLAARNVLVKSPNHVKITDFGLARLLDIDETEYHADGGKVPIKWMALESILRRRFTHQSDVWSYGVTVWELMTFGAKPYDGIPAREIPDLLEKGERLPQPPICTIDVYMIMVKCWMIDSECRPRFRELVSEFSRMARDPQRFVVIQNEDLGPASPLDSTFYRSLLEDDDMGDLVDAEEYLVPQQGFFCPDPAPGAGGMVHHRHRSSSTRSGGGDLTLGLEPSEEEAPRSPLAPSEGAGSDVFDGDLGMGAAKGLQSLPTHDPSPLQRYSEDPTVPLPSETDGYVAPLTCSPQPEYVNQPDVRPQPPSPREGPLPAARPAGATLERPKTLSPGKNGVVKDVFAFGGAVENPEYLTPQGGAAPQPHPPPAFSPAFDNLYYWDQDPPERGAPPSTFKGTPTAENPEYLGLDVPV
Description for HCT-116: Antiproliferative activity against human HCT-116 cells after 72 hrs by MTT assay

Consider `NNC(=O)c1csc2nc(CN3CCOCC3)c(-c3ccc(Br)cc3)n12`, for which the IC50 in [1] came out at 0.121 µM; in the data set with HeLa it was 3.65 µM; in the data set with PC-3, 21.9 µM; in the data set with WI-38, 49.8 µM; with MCF7 [2], 6.18 µM; in the data set with HepG2 it was 5.81 µM. For the same molecule, the IC50 at Dihydrofolate reductase was 3.28 µM; in data set [3], 0.419 µM; in the data set on HCT-116, 17.9 µM.

On to `CCC(=O)NNC(=O)c1csc2ncc(-c3ccc(C)cc3)n12`, for which the half-inhibitory concentration (IC50) in data set [1] was determined as 0.244 µM; in the data set with HeLa it was 13 µM; in the data set on PC-3, 18.5 µM; in the data set on WI-38, 67.2 µM; in the data set on MCF7 [2], 5.19 µM; in the data set with HepG2 it was 7.34 µM. Also, the IC50 on Dihydrofolate reductase is 5.67 µM; in [3] it was 0.45 µM; in the data set on HCT-116, 9.23 µM.

Regarding `COc1cccc2c1C(=O)c1c(O)c3c(c(O)c1C2=O)C[C@@](O)(C(=O)CO)C[C@@H]3O[C@H]1C[C@H](N)[C@H](O)[C@H](C)O1` [DOXORUBICIN], the Activity was found to be 1.5 with Breast carcinoma cell; 0.62 mm3 in data set [4]; 23.7% in data set [5]; 80.4% in data set [6]; 29 g in data set [7]. The 50% inhibitory concentration (IC50) in the data set on HeLa turned out to be 8.87 µM; with PC-3, 8.54 µM.

Take `Cc1ccc(-c2c(CN3CCOCC3)nc3scc(C(=O)NN)n23)cc1`: the half-maximal inhibitory concentration (IC50) in data set [1] was found to be 0.357 µM; in the data set on HeLa, 6.9 µM; in the data set on PC-3, 11.2 µM; with WI-38, 89.6 µM; in the data set on MCF7 [2] it was 8.46 µM; in the data set on HepG2, 9.67 µM. Also, the half-inhibitory concentration (IC50) on Dihydrofolate reductase turned out to be 0.123 µM; in [3], 0.246 µM; with HCT-116, 13.2 µM.

As for `Cc1ccc(-c2c(CN3CCCCC3)nc3scc(C(=O)O)n23)cc1`, the half-inhibitory concentration (IC50) in data set [1] was 0.146 µM; in the data set with HeLa, 7.63 µM; with PC-3, 16.6 µM; with WI-38 it was over 100 µM; in the data set with MCF7 [2], 8.29 µM; in the data set with HepG2, 10.8 µM. For the same molecule, the concentration for half-maximal inhibition (IC50) on Dihydrofolate reductase came out at 0.907 µM; in data set [3], 0.18 µM; in the data set on HCT-116 it was 13.8 µM.

As for `CC(=O)NNC(=O)c1csc2ncc(-c3ccc(Br)cc3)n12`, the Activity was 1.33 with Breast carcinoma cell; 17.4% in [8]; 28.04% with MCF7 [9]; 6.72% with MCF7 [10]; 76.5% in data set [11]; 62.61% in the data set with MCF7 [12]. The Activity in data set [13] turned out to be 31.4 g; in the data set with MCF7 [14], 32.15%; with MCF7 [15], 9.63%; in data set [16], 0.742 mm3; in the data set on MCF7 [17], 5.24%; in the data set on MCF7 [18], 37.67%. Moreover, the 50% inhibitory concentration (IC50) was determined as 0.108 µM in data set [1]; 4.78 µM with HeLa; 12.7 µM in the data set on PC-3; 54.2 µM with WI-38; 1.83 µM with MCF7 [2]; 3.48 µM in the data set with HepG2. Besides, the IC50 at Dihydrofolate reductase came to 0.291 µM; in data set [3], 0.153 µM; in the data set on HCT-116 it was 6.08 µM. Moreover, in the data set with Breast cancer cell line, the outcome was Active.

Take `COc1ccc(-c2c(CN3CCOCC3)nc3scc(C(=O)NN)n23)cc1`: the Activity was found to be 1.17 in the data set with Breast carcinoma cell; 7.4% in data set [8]; 22.19% with MCF7 [9]; 3.25% with MCF7 [10]; 65.3% in [11]; 64.25% with MCF7 [12]. Moreover, the Activity in data set [13] was found to be 35.2 g; in the data set with MCF7 [14] it was 25.49%; in the data set on MCF7 [15] it was 13.27%; in [16], 1.098 mm3; with MCF7 [17] it was 10.26%; in the data set on MCF7 [18], 35.46%. For the same molecule, the IC50 in data set [1] is 0.078 µM; in the data set on HeLa it was 9.43 µM; with PC-3, 18.4 µM; in the data set on WI-38, 36.8 µM; with MCF7 [2] it was 2.37 µM; with HepG2 it was 12.2 µM. For the same molecule, the IC50 on Dihydrofolate reductase was determined as 0.585 µM; in [3], 0.122 µM; with HCT-116 it was 16.2 µM. Moreover, in the data set with Breast cancer cell line, the result was Active.

Values taken from ChEMBL document CHEMBL5108025, “New thiazole-based derivatives as EGFR/HER2 and DHFR inhibitors: Synthesis, molecular modeling simulations and anticancer activity” (Eur J Med Chem, 2022).
